For experiment [1], the target named is T1, Prostaglandin E2 receptor EP3 subtype (Homo sapiens, UniProt P43115).
T1 sequence (P43115 whole entry): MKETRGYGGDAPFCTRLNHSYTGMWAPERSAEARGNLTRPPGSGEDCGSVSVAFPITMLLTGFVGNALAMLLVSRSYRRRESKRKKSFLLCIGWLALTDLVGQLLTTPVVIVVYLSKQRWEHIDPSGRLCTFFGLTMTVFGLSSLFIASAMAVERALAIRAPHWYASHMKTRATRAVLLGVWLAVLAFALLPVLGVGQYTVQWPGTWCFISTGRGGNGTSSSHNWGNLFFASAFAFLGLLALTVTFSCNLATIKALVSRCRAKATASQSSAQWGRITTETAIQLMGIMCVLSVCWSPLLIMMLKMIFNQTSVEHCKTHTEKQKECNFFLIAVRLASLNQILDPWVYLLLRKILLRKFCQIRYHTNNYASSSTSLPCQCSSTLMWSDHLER
Briefly: Displacement of [3H]PGE2 from human EP3 receptor at 20 uM in presence of normal buffer.

Experiment [2] has as its target T1, Prostaglandin E2 receptor EP3 subtype. In words: Displacement of [3H]PGE2 from human EP3 receptor at 20 uM in presence of 10% human serum.
The target in experiment [3] is T2, Prostaglandin E2 receptor EP3 subtype (Homo sapiens) (UniProt P43115).
T2 sequence (whole entry): T1 sequence (P43115 whole entry)
In words: Ratio IC50 for human EP3 receptor in presence of human serum to IC50 for human EP3 in absence of human serum.

Consider `Cn1cc(/C=C/C(=O)NS(=O)(=O)c2cc(F)c(F)cc2F)c2c(Oc3cnc4ccccc4n3)cccc21`, for which the values for the IC50 in experiment [1] and in experiment [2] were 7.2 nM and 128 nM, respectively. For the same compound, the Ratio IC50 in experiment [3] amounted to 17.7.
Consider `Cn1cc(/C=C/C(=O)NS(=O)(=O)c2ccc(F)cc2F)c2c(Oc3ccc4ccccc4c3)cccc21`, for which the IC50 in experiment [1] came to 3.5 nM; in experiment [2], 115 nM. Also, the Ratio IC50 in experiment [3] was determined as 32.7.
In the case of `Cn1cc(/C=C/C(=O)NS(=O)(=O)c2ccc(Cl)cc2)c2c(Oc3ccc4ccccc4c3)cccc21`, the results for the IC50 in experiment [1] and in experiment [2] were 21.9 nM and 1100 nM, respectively. Moreover, in experiment [3], the Ratio IC50 was 50.2.
Take `COc1cccc(Oc2cccc3c2c(/C=C/C(=O)NS(=O)(=O)c2ccc(F)c(F)c2)cn3C)c1`: the IC50 in experiment [1] was determined as 4.4 nM.
For the compound `Cn1cc(/C=C/C(=O)NS(=O)(=O)c2cc(F)c(F)cc2F)c2c(Oc3ccc(Cl)cc3)cccc21`, the results for the IC50 in experiment [1] and in experiment [2] were 3 nM and 393 nM, respectively. For the same compound, the Ratio IC50 in experiment [3] was 132.
The corresponding values for `Cn1cc(/C=C/C(=O)NS(=O)(=O)c2cc(Cl)cc(Cl)c2)c2c(Oc3ccc4ccccc4c3)cccc21` are 8.7 nM, 321 nM and 37.
For the compound `Cn1cc(/C=C/C(=O)NS(=O)(=O)c2ccc(Cl)c(Cl)c2)c2c(Oc3ccc4ccccc4c3)cccc21`, the IC50 in experiment [1] is 11.8 nM; in experiment [2], 92.9 nM. Moreover, in experiment [3], the Ratio IC50 turned out to be 7.8.
For the compound `Cn1cc(/C=C/C(=O)NS(=O)(=O)c2ccccc2Cl)c2c(Oc3ccc4ccccc4c3)cccc21`, the IC50 was found to be 18.4 nM in experiment [1] and 1680 nM in experiment [2]. In addition, the Ratio IC50 in experiment [3] came to 91.3.
Take `COc1ccc(S(=O)(=O)NC(=O)/C=C/c2cn(C)c3cccc(Oc4ccc5ccccc5c4)c23)cc1`: the IC50 in experiment [1] was determined as 101 nM.
Turning to `Cn1cc(/C=C/C(=O)NS(=O)(=O)c2ccc(Cl)cc2Cl)c2c(Oc3ccc4ccccc4c3)cccc21`, the IC50 stood at 54.1 nM in experiment [1] and 1540 nM in experiment [2]. In addition, the Ratio IC50 in experiment [3] stood at 28.5.
Turning to `Cn1cc(/C=C/C(=O)NS(=O)(=O)c2cc(F)c(F)cc2F)c2c(Oc3ccc4ncccc4c3)cccc21`, the IC50 was found to be 8.5 nM in experiment [1] and 168 nM in experiment [2]. Further, the Ratio IC50 in experiment [3] turned out to be 19.8.
On to `COc1cccc(Oc2cccc3c2c(/C=C/C(=O)NS(=O)(=O)c2cc(F)c(F)cc2F)cn3C)c1`, for which the IC50 in experiment [1] worked out at 5.1 nM.
Consider `Cn1cc(/C=C/C(=O)NS(=O)(=O)c2ccc(F)cc2)c2c(Oc3ccc4ccccc4c3)cccc21`, for which the results for the IC50 in experiment [1] and in experiment [2] were 9.4 nM and 182 nM, respectively. Also, the Ratio IC50 in experiment [3] was 19.4.
For `Cn1cc(/C=C/C(=O)NS(=O)(=O)c2cc(F)c(F)cc2F)c2c(Oc3ccc(F)c(F)c3)cccc21`, the values for the IC50 in experiment [1] and in experiment [2] were 3.8 nM and 209 nM, respectively. Besides, the Ratio IC50 in experiment [3] was determined as 55.
In the case of `Cn1cc(/C=C/C(=O)NS(=O)(=O)c2ccccc2F)c2c(Oc3ccc4ccccc4c3)cccc21`, the IC50 in experiment [1] was 11.9 nM; in experiment [2], 646 nM. Further, the Ratio IC50 in experiment [3] is 54.3.
Turning to `Cn1cc(/C=C/C(=O)NS(=O)(=O)c2cc(F)cc(F)c2)c2c(Oc3ccc4ccccc4c3)cccc21`, the IC50 in experiment [1] turned out to be 44.9 nM; in experiment [2], 157 nM. Further, in experiment [3], the Ratio IC50 amounted to 3.5.
On to `Cn1cc(/C=C/C(=O)NS(=O)(=O)c2cc(F)ccc2F)c2c(Oc3ccc4ccccc4c3)cccc21`, for which the IC50 in experiment [1] came to 6.5 nM; in experiment [2], 157 nM. Besides, in experiment [3], the Ratio IC50 turned out to be 24.3.
For the compound `Cn1cc(/C=C/C(=O)NS(=O)(=O)c2ccc(F)c(F)c2)c2c(Oc3ccc(Cl)c(F)c3)cccc21`, the IC50 is 23.4 nM in experiment [1] and 612 nM in experiment [2]. Moreover, the Ratio IC50 in experiment [3] came out at 26.3.
As to `Cn1cc(/C=C/C(=O)NS(=O)(=O)c2c(F)c(F)c(F)c(F)c2F)c2c(Oc3ccc4ccccc4c3)cccc21`, the IC50 in experiment [1] turned out to be 5.1 nM.
Same read-out and setting: for `Cn1cc(/C=C/C(=O)NS(=O)(=O)c2ccc(F)c(F)c2)c2c(Oc3ccc(F)cc3F)cccc21` the value was 18.5 nM; for `Cn1cc(/C=C/C(=O)NS(=O)(=O)c2cc(F)c(F)cc2F)c2c(Oc3ccc(F)cc3F)cccc21`, 84.8 nM.

The record behind these values is ChEMBL document CHEMBL1153263, “3-Acrylamide-4-aryloxyindoles: synthesis, biological evaluation and metabolic stability of potent and selective EP3 receptor antagonists” (Bioorg Med Chem Lett, 2009).
